Columns and labels:
OCT3 = target: T1, OCT3 (Homo sapiens, UniProt O75751); assay: Stereoselective uptake into OCT3-overexpressing HEK293 cells; conditions: for Clint ± SEM / Stereoselectivity Vmax / Stereoselectivity Km / Stereoselectivity ClInt: OCT3; for Clint ± SEM: quotient of vmax over Km; for Stereoselectivity Vmax / Stereoselectivity Km / Stereoselectivity ClInt: ratio between enantiomers; for Stereoselectivity Vmax: given as for (R) or for 1; for Stereoselectivity Km: given as for (R) or for 1 (first-eluting); for Vmax ± SEM / Km: HEK293 cells overexpressing human OCT3, racemic substrate, two minutes; for Vmax ± SEM: net uptake; for Km: read-out: Km ± SEM, net uptake minus empty vector control
T1 sequence (O75751 1-556): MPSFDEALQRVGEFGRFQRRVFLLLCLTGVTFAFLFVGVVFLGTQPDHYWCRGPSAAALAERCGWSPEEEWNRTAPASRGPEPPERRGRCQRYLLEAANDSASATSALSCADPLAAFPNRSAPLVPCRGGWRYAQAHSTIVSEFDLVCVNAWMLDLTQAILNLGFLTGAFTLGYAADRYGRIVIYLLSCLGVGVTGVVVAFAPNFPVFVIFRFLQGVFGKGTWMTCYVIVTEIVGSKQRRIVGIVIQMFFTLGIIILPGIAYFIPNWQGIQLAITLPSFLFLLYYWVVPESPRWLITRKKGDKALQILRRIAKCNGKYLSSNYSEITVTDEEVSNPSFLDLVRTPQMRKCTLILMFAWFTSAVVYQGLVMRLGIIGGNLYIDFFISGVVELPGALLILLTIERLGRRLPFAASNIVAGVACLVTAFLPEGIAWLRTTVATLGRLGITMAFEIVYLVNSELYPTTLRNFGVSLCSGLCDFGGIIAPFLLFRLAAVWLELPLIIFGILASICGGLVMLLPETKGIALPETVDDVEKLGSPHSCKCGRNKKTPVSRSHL

DAT = DAT (Homo sapiens, UniProt Q01959); assay: Stereoselective uptake into DAT-overexpressing HEK293 cells; conditions: for Clint ± SEM: quotient of vmax over Km; for Stereoselectivity Vmax / Stereoselectivity Km / Stereoselectivity ClInt: ratio between enantiomers; for Stereoselectivity Vmax: given as for (S) or for 2; for Stereoselectivity Km: given as for (S) or for 2 (second-eluting); for Stereoselectivity ClInt: printed as for (R) or for 1 (also 1.00-fold for (R/S)); for Vmax ± SEM / Km: HEK293 cells overexpressing human DAT, racemic substrate, two minutes; for Vmax ± SEM: net uptake; for Km: read-out: Km ± SEM, net uptake minus empty vector control
Sequence of DAT (Q01959 whole entry): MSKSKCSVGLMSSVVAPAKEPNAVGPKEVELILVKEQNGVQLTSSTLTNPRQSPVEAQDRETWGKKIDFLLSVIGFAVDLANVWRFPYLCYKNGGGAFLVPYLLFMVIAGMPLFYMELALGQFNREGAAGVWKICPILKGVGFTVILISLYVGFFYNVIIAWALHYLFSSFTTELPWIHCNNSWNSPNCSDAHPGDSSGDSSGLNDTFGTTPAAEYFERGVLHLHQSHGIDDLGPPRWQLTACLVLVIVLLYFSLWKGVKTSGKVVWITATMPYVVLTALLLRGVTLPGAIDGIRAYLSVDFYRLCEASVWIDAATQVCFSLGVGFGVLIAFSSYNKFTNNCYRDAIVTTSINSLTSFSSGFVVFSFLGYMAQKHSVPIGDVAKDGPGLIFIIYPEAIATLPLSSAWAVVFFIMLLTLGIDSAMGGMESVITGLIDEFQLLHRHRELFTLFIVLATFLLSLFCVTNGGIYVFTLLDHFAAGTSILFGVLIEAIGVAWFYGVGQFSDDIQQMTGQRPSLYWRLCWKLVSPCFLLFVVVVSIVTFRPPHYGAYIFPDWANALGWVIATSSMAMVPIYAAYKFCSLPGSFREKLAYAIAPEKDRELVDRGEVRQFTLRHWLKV
Procedure: (§1) All transport experiments were carried out in HEK293 cells stably overexpressing human MATs or OCTs. […] All cells were regularly cultivated in DMEM supplemented with 10% (v/v) FCS, penicillin (100 U/mL) and streptomycin (100 μg/mL)and kept in culture for no longer than 30 passages.
(§2) For the uptake experiments, 300,000 cells were plated in poly-D-lysine precoated 24-well plates 48 h ahead of the transport experiment. On the day of experiment, cells were initially washed once with 37 °C pre-warmed HBSS+ (Hanks buffered salt solution supplemented with 10 mM HEPES) and subsequently incubated with the substrates dissolved in pre-warmed HBSS+ for exactly two minutes. Incubation was stopped by adding ice-cold HBSS+ followed by two washing steps. After this, cells were lysed with 80% acetonitrile containing 10 ng/mL milnacipran as internal standard for high-performance liquid chromatography coupled to tandem mass spectrometry (HPLC-MS/MS) analysis. For every experiment, two additional wells per cell line were lysed using RIPA buffer for protein quantification. Total protein was quantified using the bicinchoninic acid assay [42]. This was later used for normalization of the uptake data.
Intracellularly accumulated test substances were quantified by HPLC-MS/MS analysis using a Shimadzu Nexera HPLC system with a SIL-30AC autosampler, a CTO-20AC column oven, a LC-30AD pump, and a CBM-20A controller (Shimadzu, Kyoto, Japan). Stereoselective chromatography was carried out on a [sequence] CBH HPLC column (100 × 3 mm inner dimension with 5 μM particle size; Sigma-Aldrich, Darmstadt, Germany) with a corresponding 10 × 3 mm guard column. Reversed phased chromatography was carried out using an ammonium acetate (NH4Ac) buffered aqueous mobile phase with isopropyl alcohol (IPA) as organic solvent. […] The order of elution of the enantiomers was obtained from available reference literature [43] or by applying enantiopure reference compounds to the chiral HPLC. […] Given the structural similarity of the investigated substances and the fact that separation was performed on the same column with almost identical mobile phases, we assume that this order of elution for our compound set is always the (R)- before the (S)-enantiomer.
(§3) Detection was performed with an API 4000 tandem mass spectrometer (AB SCIEX, Darmstadt, Germany) operating in multiple-reaction-monitoring mode. Quantification was performed using the Analyst 1.6.2 software (AB SCIEX, Darmstadt, Germany) and quantified by comparison to standard curves with known concentrations.
(§4) All uptake data were normalized to protein content to account for variation in the number of seeded sells. Transporter-mediated net uptake was calculated by subtracting uptake into empty vector-transfected control cells from uptake into transporter-transfected cells. Kinetic parameters were then determined after non-linear regression following the Michaelis–Menten equation (v = vmax × [S]/(Km + [S])) using GraphPad Prism (Version 5.01 for Windows, GraphPad Software, La Jolla, CA, USA). Vmax refers to the maximum transport velocity and Km is defined as the substance concentration required to reach half of vmax. The intrinsic clearance Clint was calculated as the quotient of vmax over Km.

SERT = SERT (Homo sapiens, UniProt P31645); assay: Stereoselective uptake into SERT-overexpressing HEK293 cells; conditions: SERT; for Saturable net uptake: result in words
Sequence of SERT (P31645 whole entry): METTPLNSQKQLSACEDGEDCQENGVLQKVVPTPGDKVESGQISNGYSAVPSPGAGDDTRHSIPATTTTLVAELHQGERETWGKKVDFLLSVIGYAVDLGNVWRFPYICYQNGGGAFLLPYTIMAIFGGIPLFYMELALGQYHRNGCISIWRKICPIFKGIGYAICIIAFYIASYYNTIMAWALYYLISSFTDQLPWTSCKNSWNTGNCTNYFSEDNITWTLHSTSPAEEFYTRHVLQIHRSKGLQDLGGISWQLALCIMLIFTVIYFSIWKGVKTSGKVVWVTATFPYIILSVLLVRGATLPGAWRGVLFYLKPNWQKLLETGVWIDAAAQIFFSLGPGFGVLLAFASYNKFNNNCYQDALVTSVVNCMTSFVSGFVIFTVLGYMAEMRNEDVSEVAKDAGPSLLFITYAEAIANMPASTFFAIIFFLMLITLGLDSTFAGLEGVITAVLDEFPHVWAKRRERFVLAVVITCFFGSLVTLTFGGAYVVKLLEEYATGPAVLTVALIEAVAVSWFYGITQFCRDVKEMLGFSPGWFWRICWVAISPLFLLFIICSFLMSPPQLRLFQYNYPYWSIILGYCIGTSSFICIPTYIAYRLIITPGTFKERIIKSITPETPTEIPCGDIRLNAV

OCT2 = target: T2, OCT2 (Homo sapiens, UniProt O15244); assay: Stereoselective uptake into OCT2 (wild-type)-overexpressing HEK293 cells; conditions: for Clint ± SEM / selectivity ratio at 2 min: OCT2; for Clint ± SEM: quotient of vmax over Km; for selectivity ratio at 2 min: human, ratio between enantiomers; for Vmax ± SEM / Km: HEK293 cells overexpressing human OCT2, racemic substrate, two minutes; for Vmax ± SEM: net uptake; for Km: read-out: Km ± SEM, net uptake minus empty vector control
T2 sequence (O15244 1-555 S270A): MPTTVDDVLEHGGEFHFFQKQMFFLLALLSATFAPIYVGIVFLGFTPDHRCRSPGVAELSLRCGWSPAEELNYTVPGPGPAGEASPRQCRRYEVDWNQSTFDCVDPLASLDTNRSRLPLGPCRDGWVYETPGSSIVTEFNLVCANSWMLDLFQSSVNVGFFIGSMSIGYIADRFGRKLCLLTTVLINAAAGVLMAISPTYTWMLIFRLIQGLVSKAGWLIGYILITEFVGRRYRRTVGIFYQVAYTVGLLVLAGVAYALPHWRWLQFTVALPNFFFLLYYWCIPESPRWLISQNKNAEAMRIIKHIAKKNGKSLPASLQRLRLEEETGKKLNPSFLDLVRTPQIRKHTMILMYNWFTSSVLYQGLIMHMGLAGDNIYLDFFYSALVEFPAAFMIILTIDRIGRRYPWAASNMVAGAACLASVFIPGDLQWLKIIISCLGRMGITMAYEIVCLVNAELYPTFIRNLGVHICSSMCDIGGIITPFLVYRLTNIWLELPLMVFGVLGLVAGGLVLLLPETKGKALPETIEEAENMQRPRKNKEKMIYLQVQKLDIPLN

OCT1 = target: T3, OCT1 (Homo sapiens, UniProt O15245); assay: Stereoselective uptake into OCT1-overexpressing HEK293 cells; conditions: for Clint ± SEM / selectivity ratio at 2 min / Stereoselectivity Vmax / Stereoselectivity ClInt / Stereoselectivity Km: OCT1; for Clint ± SEM: quotient of vmax over Km; for selectivity ratio at 2 min: human; for selectivity ratio at 2 min / Stereoselectivity Vmax / Stereoselectivity ClInt / Stereoselectivity Km: ratio between enantiomers; for Vmax ± SEM / Km: HEK293 cells overexpressing human OCT1, racemic substrate, two minutes; for Vmax ± SEM: net uptake; for Stereoselectivity ClInt: given as for (R) or for 1 (also 1.00-fold for 1/2); for Km: read-out: Km ± SEM, net uptake minus empty vector control
T3 sequence (O15245 1-554): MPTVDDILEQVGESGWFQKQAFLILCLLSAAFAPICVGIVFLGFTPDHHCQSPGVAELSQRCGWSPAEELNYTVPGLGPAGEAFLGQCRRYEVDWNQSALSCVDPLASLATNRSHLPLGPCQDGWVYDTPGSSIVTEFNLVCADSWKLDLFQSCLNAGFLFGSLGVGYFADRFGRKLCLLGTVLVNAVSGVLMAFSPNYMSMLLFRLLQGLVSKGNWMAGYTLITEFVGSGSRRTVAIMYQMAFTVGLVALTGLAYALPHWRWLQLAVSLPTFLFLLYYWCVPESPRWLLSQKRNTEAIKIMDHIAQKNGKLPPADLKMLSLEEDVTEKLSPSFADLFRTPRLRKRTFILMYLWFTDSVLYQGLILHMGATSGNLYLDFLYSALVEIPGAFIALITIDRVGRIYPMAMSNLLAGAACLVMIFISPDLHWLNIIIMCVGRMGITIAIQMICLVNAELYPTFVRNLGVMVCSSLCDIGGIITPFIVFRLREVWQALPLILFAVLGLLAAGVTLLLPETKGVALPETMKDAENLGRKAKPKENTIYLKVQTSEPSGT

OCT2 A270S variant = assay: Stereoselective uptake into OCT2 A270S variant-overexpressing HEK293 cells; conditions: OCT2 wild-type versus A270S, 100 μM racemic substance, two minutes, given as for WT
Procedure: as §1, §2
Intracellularly accumulated test substances were quantified by HPLC-MS/MS analysis using a Shimadzu Nexera HPLC system with a SIL-30AC autosampler, a CTO-20AC column oven, a LC-30AD pump, and a CBM-20A controller (Shimadzu, Kyoto, Japan). Stereoselective chromatography was carried out on a [sequence] CBH HPLC column (100 × 3 mm inner dimension with 5 μM particle size; Sigma-Aldrich, Darmstadt, Germany) with a corresponding 10 × 3 mm guard column. Reversed phased chromatography was carried out using an ammonium acetate (NH4Ac) buffered aqueous mobile phase with isopropyl alcohol (IPA) as organic solvent. […] The order of elution of the enantiomers was obtained from available reference literature [43] or by applying enantiopure reference compounds to the chiral HPLC. […] However, in every other case where the order of elution was available, the (R)-enantiomer eluted first. Given the structural similarity of the investigated substances and the fact that separation was performed on the same column with almost identical mobile phases, we assume that this order of elution for our compound set is always the (R)- before the (S)-enantiomer.
as §3, §4
HEK293 cells stably overexpressing wild-type or mutant OCT2 were incubated with 100 μM racemic substance for two minutes.

NET = NET (Homo sapiens, UniProt P23975); assay: Stereoselective uptake into NET-overexpressing HEK293 cells; conditions: for Clint ± SEM / Stereoselectivity Vmax / Stereoselectivity Km / Stereoselectivity ClInt: NET; for Clint ± SEM: quotient of vmax over Km; for Stereoselectivity Vmax / Stereoselectivity Km / Stereoselectivity ClInt: ratio between enantiomers; for Stereoselectivity Km: given as for (R) or for 1 (first-eluting); for Vmax ± SEM / Km: HEK293 cells overexpressing human NET, racemic substrate, two minutes; for Vmax ± SEM: net uptake; for Km: read-out: Km ± SEM, net uptake minus empty vector control
Sequence of NET (P23975 whole entry): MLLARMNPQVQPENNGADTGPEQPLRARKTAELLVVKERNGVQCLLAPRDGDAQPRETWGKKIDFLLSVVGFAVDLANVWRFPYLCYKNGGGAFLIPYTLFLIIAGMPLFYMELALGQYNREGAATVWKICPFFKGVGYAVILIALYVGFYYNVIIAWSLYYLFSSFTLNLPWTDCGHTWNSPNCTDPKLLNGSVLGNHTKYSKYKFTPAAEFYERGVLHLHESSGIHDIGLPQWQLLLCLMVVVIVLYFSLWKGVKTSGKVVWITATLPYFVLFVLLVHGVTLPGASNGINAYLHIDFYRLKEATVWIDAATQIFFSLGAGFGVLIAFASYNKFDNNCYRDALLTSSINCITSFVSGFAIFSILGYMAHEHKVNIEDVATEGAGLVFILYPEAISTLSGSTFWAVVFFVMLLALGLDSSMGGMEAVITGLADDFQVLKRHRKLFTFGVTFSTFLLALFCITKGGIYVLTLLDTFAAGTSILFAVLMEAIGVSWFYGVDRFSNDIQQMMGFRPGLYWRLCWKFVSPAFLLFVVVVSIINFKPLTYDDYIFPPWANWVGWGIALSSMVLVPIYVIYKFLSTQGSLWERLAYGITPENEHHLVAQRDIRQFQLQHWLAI

[1] = ratio between enantiomers, given as for (S) or for 2
[2] = Stereoselectivity Km, given as for (R) or for 1 (first-eluting)
[3] = given as for (R) or for 1 (also 1.00-fold for 1/2)
[4] = given as for (R) or for 1 (first-eluting)

Row | Compound | Clint ± SEM (OCT3) | Stereoselectivity Vmax (OCT3) [fold] | Stereoselectivity Km (OCT3) [fold] | Clint ± SEM (OCT2) | Clint ± SEM (OCT1) | Clint ± SEM (NET) | Stereoselectivity Km (NET) [fold] | Stereoselectivity ClInt (NET; given as for (S) or for 2) [fold] | Vmax ± SEM (OCT3) | Stereoselectivity ClInt (OCT3; [3]) [fold] | Km (OCT3) [µM] | Clint ± SEM (DAT; DAT) | Stereoselectivity Vmax (DAT; DAT) [fold] | Vmax ± SEM (DAT) | Km (DAT) [µM] | Vmax ± SEM (OCT2) | Vmax ± SEM (OCT1) | Km (OCT1) [µM] | Vmax ± SEM (NET) | Km (NET) [µM] | other results
1 | COc1cc(C(O)CN)ccc1O (single isomer, unassigned) [Normetanephrine-2, Normetanephrine] | 21.6 mL × g Protein^−1 × min^−1 | 1.09 | 1.22 | 5.92 mL × g Protein^−1 × min^−1 | 2.65 mL × g Protein^−1 × min^−1 | 3.47 mL × g Protein^−1 × min^−1 | 1.35 | 1.28 |  |  |  |  |  |  |  |  |  |  |  |  | Stereoselectivity ClInt (OCT3; given as for (S) or for 2): 1.12 fold; Saturable net uptake (DAT; DAT, result in words): No saturable net uptake; Clint ± SEM (SERT; quotient of vmax over Km): 4.05 mL × g Protein^−1 × min^−1; Stereoselectivity Km (SERT; ratio between enantiomers, given as for (R) or for 1 (first-eluting)): 1.08 fold; Stereoselectivity ClInt (SERT; [1]): 1.28 fold; Stereoselectivity Vmax (SERT; [1]): 1.67 fold; selectivity ratio at 2 min (OCT2; Stereoselectivity ClInt, given as for (R) or for 1): 1.56; selectivity ratio at 2 min (OCT2; [2]): 1.32; selectivity ratio at 2 min (OCT2; Stereoselectivity Vmax, given as for (S) or for 2): 2.06; selectivity ratio at 2 min (OCT1; Stereoselectivity ClInt, given as for (S) or for 2): 1.08; selectivity ratio at 2 min (OCT1; [2]): 1.59; selectivity ratio at 2 min (OCT1; Stereoselectivity Vmax, given as for (R) or for 1): 1.47; Transporter selectivity (OCT2 A270S variant; listed as (S)-Normetanephrine): 1.08 fold; Stereoselectivity Vmax (NET; given as for (R) or for 1): 1.06 fold
2 | NC[C@H](O)c1ccccc1 [(R)-Bisnorephedrine] | 4.00 mL × g Protein^−1 × min^−1 | 1.13 | 1.08 | 22.6 mL × g Protein^−1 × min^−1 | 1.17 mL × g Protein^−1 × min^−1 | 46.1 mL × g Protein^−1 × min^−1 | 1.01 | 1.24 | 662 pmol × mg Protein^−1 × min^−1 | 1.04 | 165 | 6.21 mL × g Protein^−1 × min^−1 | 1.17 | 27.2 pmol × mg Protein^−1 × min^−1 | 4.38 | 847 pmol × mg Protein^−1 × min^−1 | 218 pmol × mg Protein^−1 × min^−1 | 187 | 9.50 pmol × mg Protein^−1 × min^−1 | 0.206 | Stereoselectivity Km (DAT; DAT): 1.18 fold; Stereoselectivity ClInt (DAT; DAT): 1.01 fold; Saturable net uptake (SERT): No saturable net uptake; Stereoselectivity Vmax (OCT1; given as for (R) or for 1): 1.19 fold; Stereoselectivity ClInt (OCT1): 1.03 fold; Stereoselectivity Km (OCT1; [4]): 1.15 fold; Transporter selectivity (OCT2 A270S variant): 1.50 fold; Stereoselectivity Vmax (NET; given as for (S) or for 2): 1.23 fold
3 | NC[C@@H](O)c1ccccc1 [(S)-Bisnorephedrine] | 3.85 mL × g Protein^−1 × min^−1 | 1.13 | 1.08 | 10.0 mL × g Protein^−1 × min^−1 | 1.13 mL × g Protein^−1 × min^−1 | 57.4 mL × g Protein^−1 × min^−1 | 1.01 | 1.24 | 589 pmol × mg Protein^−1 × min^−1 | 1.04 | 153 | 6.15 mL × g Protein^−1 × min^−1 | 1.17 | 31.7 pmol × mg Protein^−1 × min^−1 | 5.16 | 602 pmol × mg Protein^−1 × min^−1 | 184 pmol × mg Protein^−1 × min^−1 | 162 | 11.7 pmol × mg Protein^−1 × min^−1 | 0.204 | Stereoselectivity Km (DAT; DAT): 1.18 fold; Stereoselectivity ClInt (DAT; DAT): 1.01 fold; Saturable net uptake (SERT): No saturable net uptake; Stereoselectivity Vmax (OCT1; given as for (R) or for 1): 1.19 fold; Stereoselectivity ClInt (OCT1): 1.03 fold; Stereoselectivity Km (OCT1; [4]): 1.15 fold; Transporter selectivity (OCT2 A270S variant): 1.24 fold; Stereoselectivity Vmax (NET; given as for (S) or for 2): 1.23 fold
4 | CNC[C@@H](O)c1ccc(O)c(O)c1 [(S)-Epinephrine] | 11.7 ± 4.9 mL × g Protein^−1 × min^−1 |  |  | 6.83 ± 2.57 mL × g Protein^−1 × min^−1 |  |  |  |  | 5336 ± 502 pmol × mg Protein^−1 × min^−1 |  | 455 ± 149 | 37.9 ± 14.8 mL × g Protein^−1 × min^−1 |  | 1226 ± 90 pmol × mg Protein^−1 × min^−1 |  | 3993 ± 360 pmol × mg Protein^−1 × min^−1 | 2514 ± 266 pmol × mg Protein^−1 × min^−1 | 671 ± 230 | 557 ± 22 pmol × mg Protein^−1 × min^−1 | 8.52 ± 1.91 | Km (OCT2): 585 ± 167 µM
5 | (R)-Epinephrine | 20.9 ± 6.7 mL × g Protein^−1 × min^−1 |  |  | 14.2 ± 4.0 mL × g Protein^−1 × min^−1 | 4.06 ± 1.37 mL × g Protein^−1 × min^−1 | 91.7 ± 21.3 mL × g Protein^−1 × min^−1 |  |  | 9742 ± 698 pmol × mg Protein^−1 × min^−1 |  | 466 ± 116 | 64.7 ± 26.7 mL × g Protein^−1 × min^−1 |  |  | 34 ± 11.6 | 7277 ± 483 pmol × mg Protein^−1 × min^−1 | 2419 ± 189 pmol × mg Protein^−1 × min^−1 | 596 ± 155 | 1027 ± 37 pmol × mg Protein^−1 × min^−1 | 11.2 ± 2.2 | Km (OCT2): 513 ± 110 µM
